Data taken from PubChem BioAssay AID2060907 (Molecular Pharmacology Branch, DTP, NCI, 2025).
Values belong to the compound of their own block, whether it stands above or below them.

Tested on: 388556-164-R-J1-PDC complex spheroid viability
Experiment: Anticancer human tumor 388556-164-R-J1-PDC patient-derived colon adenocarcinoma cell line growth inhibition [RAS]
Settings: for IC50: curve of first compound; for viability, T/C: stronger effect = lower value
Method in brief: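 Multi-cell-type spheroids: tumor cells plus HUVEC endothelial cells and mesenchymal stem cells. RAS-pathway inhibitors were combined with targeted agents, each dosed in half-log steps down from clinical Cmax, or from 10 microM when Cmax was unknown.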

[1] = second compound 0.000949 µM, first compound 0.0316 µM
[2] = second compound 0.000949 µM, first compound 0.1 µM
[3] = second compound 0.000949 µM, first compound 0.316 µM
[4] = second compound 0.000949 µM, first compound 1 µM
[5] = second compound 0.000949 µM, first compound 3.16 µM
[6] = second compound 0.000949 µM, first compound 10 µM
[7] = second compound 0.003 µM, first compound 0.0316 µM
[8] = second compound 0.003 µM, first compound 0.1 µM
[9] = second compound 0.003 µM, first compound 0.316 µM
[10] = second compound 0.003 µM, first compound 1 µM
[11] = second compound 0.003 µM, first compound 3.16 µM
[12] = second compound 0.003 µM, first compound 10 µM
[13] = second compound 0.00949 µM, first compound 0.0316 µM
[14] = second compound 0.00949 µM, first compound 0.1 µM
[15] = second compound 0.00949 µM, first compound 0.316 µM
[16] = second compound 0.00949 µM, first compound 1 µM
[17] = second compound 0.00949 µM, first compound 3.16 µM
[18] = second compound 0.00949 µM, first compound 10 µM
[19] = second compound 0.03 µM, first compound 0.0316 µM
[20] = second compound 0.03 µM, first compound 0.1 µM
[21] = second compound 0.03 µM, first compound 0.316 µM
[22] = second compound 0.03 µM, first compound 1 µM
[23] = second compound 0.03 µM, first compound 3.16 µM
[24] = second compound 0.03 µM, first compound 10 µM
[25] = second compound 0.0949 µM, first compound 0.0316 µM
[26] = second compound 0.0949 µM, first compound 0.1 µM
[27] = second compound 0.0949 µM, first compound 0.316 µM
[28] = second compound 0.0949 µM, first compound 1 µM
[29] = second compound 0.0949 µM, first compound 3.16 µM
[30] = second compound 0.0949 µM, first compound 10 µM
[31] = second compound 0.3 µM, first compound 0.0316 µM
[32] = second compound 0.3 µM, first compound 0.1 µM
[33] = second compound 0.3 µM, first compound 0.316 µM
[34] = second compound 0.3 µM, first compound 1 µM
[35] = second compound 0.3 µM, first compound 3.16 µM
[36] = second compound 0.3 µM, first compound 10 µM
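Further: spheroids exposed to compound for 7 days before readout.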
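Wherever viability, T/C is given: 100% = DMSO vehicle control luminescence.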

IC50 (second compound 0.000949 µM): > 10000 nM
IC50 (second compound 0.003 µM): > 10000 nM
IC50 (second compound 0.00949 µM): 510 nM
IC50 (second compound 0.03 µM): < 31.6 nM
IC50 (second compound 0.0949 µM): < 31.6 nM
IC50 (second compound 0.3 µM): < 31.6 nM
Compound: CC(=O)OC12COC1CC(O)C1(C)C(=O)C(O)C3=C(C)C(OC(=O)C(O)C(NC(=O)OC(C)(C)C)c4ccccc4)CC(O)(C(OC(=O)c4ccccc4)C21)C3(C)C (centres undefined) + CCn1c(-c2cc(N3CCN(C)CC3)cnc2C(C)OC)c2c3cc(ccc31)-c1csc(n1)CC(NC(=O)C1CC1C)C(=O)N1CCCC(N1)C(=O)OCC(C)(C)C2
viability, T/C [1]: 77.2%
viability, T/C [2]: 63.2%
viability, T/C [3]: 63.7%
viability, T/C [4]: 66.1%
viability, T/C [5]: 69.2%
viability, T/C [6]: 59.6%
viability, T/C [7]: 76.4%
viability, T/C [8]: 61.6%
viability, T/C [9]: 54%
viability, T/C [10]: 59.1%
viability, T/C [11]: 55.1%
viability, T/C [12]: 50.4%
viability, T/C [13]: 65.3%
viability, T/C [14]: 57.1%
viability, T/C [15]: 52.8%
viability, T/C [16]: 43.9%
viability, T/C [17]: 50.4%
viability, T/C [18]: 41.2%
viability, T/C [19]: 46.9%
viability, T/C [20]: 42.3%
viability, T/C [21]: 40.1%
viability, T/C [22]: 44.1%
viability, T/C [23]: 41.2%
viability, T/C [24]: 32%
viability, T/C [25]: 44.1%
viability, T/C [26]: 34.9%
viability, T/C [27]: 34.9%
viability, T/C [28]: 32.4%
viability, T/C [29]: 31.1%
viability, T/C [30]: 25.4%
viability, T/C [31]: 27.4%
viability, T/C [32]: 27.9%
viability, T/C [33]: 28%
viability, T/C [34]: 30.1%
viability, T/C [35]: 27.8%
viability, T/C [36]: 24.4%

IC50 (second compound 0.000949 µM): 1850 nM
IC50 (second compound 0.003 µM): 1810 nM
IC50 (second compound 0.00949 µM): 1420 nM
IC50 (second compound 0.03 µM): 1050 nM
IC50 (second compound 0.0949 µM): < 31.6 nM
IC50 (second compound 0.3 µM): < 31.6 nM
Compound: CCC(CC)c1cc(NC2CCC(N)C2)n2nccc2n1 (centres undefined) + CCn1c(-c2cc(N3CCN(C)CC3)cnc2C(C)OC)c2c3cc(ccc31)-c1csc(n1)CC(NC(=O)C1CC1C)C(=O)N1CCCC(N1)C(=O)OCC(C)(C)C2
viability, T/C [1]: 84.5%
viability, T/C [2]: 104%
viability, T/C [3]: 93.3%
viability, T/C [4]: 90.6%
viability, T/C [5]: 14.7%
viability, T/C [6]: 10.2%
viability, T/C [7]: 89.6%
viability, T/C [8]: 85.2%
viability, T/C [9]: 79.3%
viability, T/C [10]: 81.1%
viability, T/C [11]: 20.5%
viability, T/C [12]: 9.94%
viability, T/C [13]: 82.7%
viability, T/C [14]: 77.2%
viability, T/C [15]: 73.7%
viability, T/C [16]: 65.1%
viability, T/C [17]: 15.4%
viability, T/C [18]: 11.8%
viability, T/C [19]: 56.5%
viability, T/C [20]: 66.5%
viability, T/C [21]: 57.9%
viability, T/C [22]: 51.7%
viability, T/C [23]: 10%
viability, T/C [24]: 11.5%
viability, T/C [25]: 40.5%
viability, T/C [26]: 47%
viability, T/C [27]: 47%
viability, T/C [28]: 38.4%
viability, T/C [29]: 9.16%
viability, T/C [30]: 11.8%
viability, T/C [31]: 28.7%
viability, T/C [32]: 32.5%
viability, T/C [33]: 32.4%
viability, T/C [34]: 27.8%
viability, T/C [35]: 5.58%
viability, T/C [36]: 11%
